In ChEMBL document CHEMBL5335843, “Application of tobramycin benzyl ether as an antibiotic adjuvant capable of sensitizing multidrug-resistant Gram-negative bacteria to rifampicin” (2024):

Experiments:
Type in all cases: functional
Pseudomonas aeruginosa [1] = experiment: Antibiotic adjuvant activity against multi-drug resistant Pseudomonas aeruginosa clinical isolate PA259 assessed as inhibition of bacterial growth incubated for 18 hrs in presence of doxycycline by two fold broth microdilution checkerboard assay
Pseudomonas aeruginosa [2] = experiment: Antibiotic adjuvant activity against multi-drug resistant Pseudomonas aeruginosa clinical isolate PA114228 assessed as doxycycline MIC incubated for 18 hrs in presence of doxycycline by two fold broth microdilution checkerboard assay
Pseudomonas aeruginosa [3] = experiment: Antibiotic adjuvant activity against multi-drug resistant Pseudomonas aeruginosa clinical isolate PA262 assessed as inhibition of bacterial growth incubated for 18 hrs in presence of Rifampicin by two fold broth microdilution checkerboard assay
Acinetobacter baumannii [4] = experiment: Antibiotic adjuvant activity against Acinetobacter baumannii ATCC 17978 assessed as fold potentiation incubated for 18 hrs in presence of rifampicin and FBS media by two fold broth microdilution checkerboard assay
Escherichia coli [5] = experiment: Antibiotic adjuvant activity against multi-drug resistant Escherichia coli clinical isolate 94474 assessed as rifampicin MIC incubated for 18 hrs in presence of Rifampicin by two fold broth microdilution checkerboard assay
Escherichia coli [6] = experiment: Antibiotic adjuvant activity against Escherichia coli ATCC 25922 assessed as doxycycline MIC incubated for 18 hrs in presence of doxycycline by two fold broth microdilution checkerboard assay
Pseudomonas aeruginosa [7] = experiment: Antibiotic adjuvant activity against multi-drug resistant Pseudomonas aeruginosa clinical isolate PA262 assessed as fractional inhibitory concentration index incubated for 18 hrs in presence of minocycline by two fold broth microdilution checkerboard assay
Pseudomonas aeruginosa [8] = experiment: Antibiotic adjuvant activity against multi-drug resistant Pseudomonas aeruginosa clinical isolate PA259 assessed as fractional inhibitory concentration index incubated for 18 hrs in presence of Rifampicin by two fold broth microdilution checkerboard assay
Pseudomonas aeruginosa [9] = experiment: Antibiotic adjuvant activity against multi-drug resistant Pseudomonas aeruginosa clinical isolate PA262 assessed as fractional inhibitory concentration index incubated for 18 hrs in presence of Rifampicin by two fold broth microdilution checkerboard assay
Pseudomonas aeruginosa [10] = experiment: Antibiotic adjuvant activity against multi-drug resistant Pseudomonas aeruginosa clinical isolate PA262 assessed as rifampicin MIC incubated for 18 hrs in presence of Rifampicin by two fold broth microdilution checkerboard assay
Acinetobacter baumannii [11] = experiment: Antibiotic adjuvant activity against multi-drug resistant Acinetobacter baumannii clinical isolate 110193 assessed as rifampicin MIC incubated for 18 hrs in presence of Rifampicin by two fold broth microdilution checkerboard assay
Escherichia coli [12] = experiment: Antibiotic adjuvant activity against multi-drug resistant Escherichia coli clinical isolate 107115 assessed as fold potentiation incubated for 18 hrs in presence of Rifampicin by two fold broth microdilution checkerboard assay
Pseudomonas aeruginosa [13] = experiment: Antibiotic adjuvant activity against Pseudomonas aeruginosa PAO1 assessed as fold potentiation incubated for 18 hrs in presence of rifampicin and CAMHB Mg2+ media by two fold broth microdilution checkerboard assay
Pseudomonas aeruginosa [14] = experiment: Antibiotic adjuvant activity against multi-drug resistant Pseudomonas aeruginosa clinical isolate PA262 assessed as fractional inhibitory concentration index incubated for 18 hrs in presence of doxycycline by two fold broth microdilution checkerboard assay
Acinetobacter baumannii [15] = experiment: Antibiotic adjuvant activity against multi-drug resistant Acinetobacter baumannii clinical isolate 110193 assessed as fractional inhibitory concentration index incubated for 18 hrs in presence of Rifampicin by two fold broth microdilution checkerboard assay
Acinetobacter baumannii [16] = experiment: Antibiotic adjuvant activity against Acinetobacter baumannii ATCC 17978 assessed as fold potentiation incubated for 18 hrs in presence of novobiocin by two fold broth microdilution checkerboard assay
Acinetobacter baumannii [17] = experiment: Antibiotic adjuvant activity against multi-drug resistant Acinetobacter baumannii clinical isolate 92247 assessed as inhibition of bacterial growth incubated for 18 hrs in presence of Rifampicin by two fold broth microdilution checkerboard assay
Acinetobacter baumannii [18] = experiment: Antibiotic adjuvant activity against Acinetobacter baumannii ATCC 17978 assessed as fold potentiation incubated for 18 hrs in presence of Rifampicin by two fold broth microdilution checkerboard assay
Acinetobacter baumannii [19] = experiment: Antibacterial activity against Acinetobacter baumannii ATCC 17978 assessed as inhibition of bacterial growth incubated for 18 hrs by two fold broth microdilution assay
Escherichia coli [20] = experiment: Antibiotic adjuvant activity against Escherichia coli ATCC 25922 assessed as fold increase in MIC incubated for 18 hrs in presence of rifampicin and CAMHB Mg2+ media by two fold broth microdilution checkerboard assay
Enterobacterales = experiment: Antibiotic adjuvant activity against Enterobacterales assessed as minocycline MIC incubated for 18 hrs in presence of minocycline by two fold broth microdilution checkerboard assay
Acinetobacter baumannii [21] = experiment: Antibiotic adjuvant activity against Acinetobacter baumannii ATCC 17978 assessed as fold potentiation incubated for 18 hrs in presence of vancomycin by two fold broth microdilution checkerboard assay
Escherichia coli [22] = experiment: Antibacterial activity against multi-drug resistant Escherichia coli clinical isolate 94393 assessed as inhibition of bacterial growth incubated for 18 hrs by two fold broth microdilution assay
Pseudomonas aeruginosa [23] = experiment: Antibiotic adjuvant activity against multi-drug resistant Pseudomonas aeruginosa clinical isolate PA259 assessed as doxycycline MIC incubated for 18 hrs in presence of doxycycline by two fold broth microdilution checkerboard assay
Pseudomonas aeruginosa [24] = experiment: Antibiotic adjuvant activity against multi-drug resistant Pseudomonas aeruginosa clinical isolate PA101243 assessed as fractional inhibitory concentration index incubated for 18 hrs in presence of minocycline by two fold broth microdilution checkerboard assay
Pseudomonas aeruginosa [25] = experiment: Antibiotic adjuvant activity against multi-drug resistant Pseudomonas aeruginosa clinical isolate 101243 assessed as rifampicin MIC incubated for 18 hrs in presence of Rifampicin by two fold broth microdilution checkerboard assay
Escherichia coli [26] = experiment: Antibacterial activity against Escherichia coli ATCC 25922 assessed as inhibition of bacterial growth incubated for 18 hrs by two fold broth microdilution assay
Escherichia coli [27] = experiment: Antibacterial activity against multi-drug resistant Escherichia coli clinical isolate 94474 assessed as inhibition of bacterial growth incubated for 18 hrs by two fold broth microdilution assay
Staphylococcus aureus = experiment: Antibiotic adjuvant activity against methicilin-resistant Staphylococcus aureus assessed as inhibition of bacterial growth incubated for 18 hrs in presence of rifampicin by two fold broth microdilution checkerboard assay
Escherichia coli [28] = experiment: Antibiotic adjuvant activity against multi-drug resistant Escherichia coli clinical isolate EC107115 assessed as minocycline MIC incubated for 18 hrs in presence of minocycline by two fold broth microdilution checkerboard assay
Pseudomonas aeruginosa [29] = experiment: Antibiotic adjuvant activity against multi-drug resistant Pseudomonas aeruginosa clinical isolate PA262 assessed as fold potentiation incubated for 18 hrs in presence of doxycycline by two fold broth microdilution checkerboard assay
Pseudomonas aeruginosa [30] = experiment: Antibiotic adjuvant activity against Pseudomonas aeruginosa PAO1 assessed as minocycline MIC incubated for 18 hrs in presence of minocycline by two fold broth microdilution checkerboard assay
Pseudomonas aeruginosa [31] = experiment: Antibiotic adjuvant activity against multi-drug resistant Pseudomonas aeruginosa clinical isolate PA264 assessed as rifampicin MIC incubated for 18 hrs in presence of Rifampicin by two fold broth microdilution checkerboard assay
Enterococcus faecium = experiment: Antibiotic adjuvant activity against Enterococcus faecium 128149 assessed as fold potentiation incubated for 18 hrs in presence of rifampicin by two fold broth microdilution checkerboard assay
Escherichia coli [32] = experiment: Antibiotic adjuvant activity against multi-drug resistant Escherichia coli clinical isolate EC107115 assessed as fold potentiation incubated for 18 hrs in presence of minocycline by two fold broth microdilution checkerboard assay
Escherichia coli [33] = experiment: Antibiotic adjuvant activity against multi-drug resistant Escherichia coli clinical isolate EC107115 assessed as fold potentiation incubated for 18 hrs in presence of doxycycline by two fold broth microdilution checkerboard assay

## Cl.NC[C@H]1O[C@H](O[C@H]2[C@H](OCc3ccccc3)[C@@H](O[C@H]3O[C@H](COCc4ccccc4)[C@@H](OCc4ccccc4)[C@H](N)[C@H]3OCc3ccccc3)[C@H](N)C[C@@H]2N)[C@H](N)C[C@@H]1OCc1ccccc1
Pseudomonas aeruginosa [1]
  MIC: 8 µg/mL
Pseudomonas aeruginosa [2]
  MIC: > 128 µg/mL
Pseudomonas aeruginosa [3]
  MIC: 8 µg/mL
Acinetobacter baumannii [4]
  fold change (FC): 4
Escherichia coli [5]
  MIC: 0.031 µg/mL
Escherichia coli [6]
  MIC: 0.125 µg/mL
Pseudomonas aeruginosa [7]
  fractional inhibitory concentration index (FICI): 1.063
Pseudomonas aeruginosa [8]
  fractional inhibitory concentration index (FICI): 1.063
Pseudomonas aeruginosa [9]
  fractional inhibitory concentration index (FICI): 1.063
Pseudomonas aeruginosa [10]
  MIC: 512 µg/mL
Acinetobacter baumannii [11]
  MIC: 0.004 µg/mL
Escherichia coli [12]
  fold change (FC): 1024
Pseudomonas aeruginosa [13]
  fold change (FC): 1
Pseudomonas aeruginosa [14]
  fractional inhibitory concentration index (FICI): 1.063
Acinetobacter baumannii [15]
  fractional inhibitory concentration index (FICI): 0.126
Acinetobacter baumannii [16]
  fold change (FC): 2048
Acinetobacter baumannii [17]
  MIC: 8 µg/mL
Acinetobacter baumannii [18]
  fold change (FC): 8
Acinetobacter baumannii [19]
  MIC: 64 µg/mL
Escherichia coli [20]
  fold change (FC): >=2
Enterobacterales
  MIC: ≤ 4 µg/mL
Acinetobacter baumannii [21]
  fold change (FC): 8
Escherichia coli [22]
  MIC: 32 µg/mL
Pseudomonas aeruginosa [23]
  MIC: 256 µg/mL
Pseudomonas aeruginosa [24]
  fractional inhibitory concentration index (FICI): 1.063
Pseudomonas aeruginosa [25]
  MIC: 0.004 µg/mL
Escherichia coli [26]
  MIC: 32 µg/mL
Escherichia coli [27]
  MIC: 32 µg/mL
Staphylococcus aureus
  MIC: 4 µg/mL
Escherichia coli [28]
  MIC: 1 µg/mL
Pseudomonas aeruginosa [29]
  fold change (FC): 1
Pseudomonas aeruginosa [30]
  MIC: 0.5 µg/mL
Pseudomonas aeruginosa [31]
  MIC: 16 µg/mL
Enterococcus faecium
  fold change (FC): 1
Escherichia coli [32]
  fold change (FC): 32
Escherichia coli [33]
  fold change (FC): 4
